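A five-concentration, 48-hour dose response in 96-well plates underlies each endpoint, interpolated linearly between surrounding concentrations. GI50 is the concentration that inhibits growth by half.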 Calls of active or inactive are those of the source. No stated cut-off is given here; in the data, active = GI50 up to about 1.1 µM and inactive = higher.
Assays:
Assay in all cases: growth of human tumour cells (NCI), 48 h
[1] = system: CAKI-1
[2] = system: EKVX
[3] = system: HCC 2998
[4] = system: HL-60
[5] = system: HOP-62
[6] = system: IGROV-1
[7] = system: K562
[8] = system: KM12
[9] = system: LOX IMVI
[10] = system: MCF7
[11] = system: Malme-3M
[12] = system: NCI-H226
[13] = system: NCI-H460
[14] = system: OVCAR-4
[15] = system: RPMI-8226
[16] = system: SK-MEL-28
[17] = system: SK-MEL-2
[18] = system: SN12C
[19] = system: UACC-257
[20] = system: UACC-62

Row | SMILES | GI50 [1] | GI50 [2] | GI50 [3] | GI50 [4] | GI50 [5] | GI50 [6] | GI50 [7] | GI50 [8] | GI50 [9] | GI50 [10] | GI50 [11] | GI50 [12] | GI50 [13] | GI50 [14] | GI50 [15] | GI50 [16] | GI50 [17] | GI50 [18] | GI50 [19] | GI50 [20]
1 | O=C1CSC(c2cc3cc(Br)ccc3nc2Cl)N1c1ccc(Cl)cc1 (stereo not drawn) | 18.5 µM (inactive) | 27.2 µM (inactive) | 19.2 µM (inactive) | 20.7 µM (inactive) | 25.8 µM (inactive) | 16.8 µM (inactive) | 7.33 µM (inactive) | 13 µM (inactive) | 16.1 µM (inactive) | 17.9 µM (inactive) | 25.7 µM (inactive) | 39.2 µM (inactive) | 16.1 µM (inactive) | 23.2 µM (inactive) | 25.4 µM (inactive) | 33.7 µM (inactive) | 14.7 µM (inactive) | 20.2 µM (inactive) | 14.8 µM (inactive) | 5.87 µM (inactive)
2 | CN(C)C(=O)NCCN1CCCCCc2ccccc21 | > 100 µM (inactive) | > 100 µM (inactive) | > 100 µM (inactive) | 31.3 µM (inactive) | > 100 µM (inactive) | > 100 µM (inactive) | > 100 µM (inactive) | > 100 µM (inactive) | > 100 µM (inactive) | > 100 µM (inactive) | > 100 µM (inactive) | 49.7 µM (inactive) | > 100 µM (inactive) | 78 µM (inactive) | > 100 µM (inactive) | > 100 µM (inactive) | 89.7 µM (inactive) | > 100 µM (inactive) | 76 µM (inactive) | > 100 µM (inactive)
3 | Cc1ccc(/C=C/C(=O)c2c([O-])on[n+]2-c2ccccc2)cc1 | 1.98 µM (inactive) | 3.6 µM (inactive) | 2.01 µM (inactive) | 1.47 µM (inactive) | 5.28 µM (inactive) | 2.73 µM (inactive) | 3.68 µM (inactive) | 2.39 µM (inactive) | 1.88 µM (inactive) | 3.53 µM (inactive) | 5.42 µM (inactive) | 3.79 µM (inactive) | 2.44 µM (inactive) | 3.1 µM (inactive) | 2.57 µM (inactive) | 2.26 µM (inactive) | 2.11 µM (inactive) | 3.79 µM (inactive) | 3.64 µM (inactive) | 1.72 µM (inactive)
4 | CC1NC(=O)C(C)C(c2ccccc2)N(N=O)C1c1ccccc1 (stereo not drawn) | > 100 µM (inactive) | > 83 µM (inactive) | 52.4 µM (inactive) | 22.9 µM (inactive) | > 87.9 µM (inactive) | > 81.5 µM (inactive) | 33 µM (inactive) | 74.1 µM (inactive) | > 69.5 µM (inactive) | 50 µM (inactive) | > 100 µM (inactive) | > 100 µM (inactive) | > 61.7 µM (inactive) | 31.3 µM (inactive) | 33.6 µM (inactive) | > 100 µM (inactive) | > 100 µM (inactive) | > 100 µM (inactive) | > 100 µM (inactive) | > 88.5 µM (inactive)
5 | C=C1C(=O)OC2CC1CCC1(C)OC1CCC(C)=CCCC2(C)O (stereo not drawn) | 2.4 µM (inactive) | 6.87 µM (inactive) | 7.01 µM (inactive) | 0.927 µM (active) | 10.3 µM (inactive) | 7.18 µM (inactive) | 1.83 µM (inactive) | 5.52 µM (inactive) | 2.24 µM (inactive) | 3.82 µM (inactive) | 3.76 µM (inactive) | 3.61 µM (inactive) | 3.06 µM (inactive) | 4.78 µM (inactive) | 1.51 µM (inactive) | 4.06 µM (inactive) | 6.12 µM (inactive) | 5.08 µM (inactive) | 4.78 µM (inactive) | 3.4 µM (inactive)
6 | COc1cccc(OCC(=N/NC(=O)c2ccncc2)/N=C/c2ccncc2)c1 | > 100 µM (inactive) | > 100 µM (inactive) | > 100 µM (inactive) | > 100 µM (inactive) | > 100 µM (inactive) | > 100 µM (inactive) | > 100 µM (inactive) | > 100 µM (inactive) | > 100 µM (inactive) | > 100 µM (inactive) | > 100 µM (inactive) | > 100 µM (inactive) | > 100 µM (inactive) | > 100 µM (inactive) | > 100 µM (inactive) | > 100 µM (inactive) | > 100 µM (inactive) | > 100 µM (inactive) | > 100 µM (inactive) | > 100 µM (inactive)
7 | O=C1C=CC(=O)c2c(Cl)ccc(O)c21 | 11.1 µM (inactive) | 21.8 µM (inactive) | > 100 µM (inactive) | 2.96 µM (inactive) | > 100 µM (inactive) | 14.6 µM (inactive) | 3.48 µM (inactive) | 52.7 µM (inactive) | 18.2 µM (inactive) | 13.9 µM (inactive) | 18.7 µM (inactive) | > 91.2 µM (inactive) | > 65.9 µM (inactive) | 18.5 µM (inactive) | 5.66 µM (inactive) | 18.8 µM (inactive) | 37.8 µM (inactive) | 21.1 µM (inactive) | 16.1 µM (inactive) | 16.8 µM (inactive)
8 | Cc1cc(C(=O)NCCN(C)C)c2nc3ccccc3cc2c1 | 0.33 µM (active) | 0.594 µM (active) | 3.67 µM (inactive) | 0.871 µM (active) | 1.68 µM (inactive) | 2.39 µM (inactive) | 2.44 µM (inactive) | 2.94 µM (inactive) | 1.27 µM (inactive) | 1.55 µM (inactive) | 1.6 µM (inactive) | 1.17 µM (inactive) | 0.372 µM (active) | 3.02 µM (inactive) | 1.55 µM (inactive) | 3.15 µM (inactive) | 2.69 µM (inactive) | 1.59 µM (inactive) | 2.07 µM (inactive) | 1.52 µM (inactive)
9 | Cc1cccc(/C=N/NC(=S)NCCc2ccccn2)n1 | 26.7 µM (inactive) | 38.2 µM (inactive) | 42.2 µM (inactive) | 15.6 µM (inactive) | 18 µM (inactive) | 20.1 µM (inactive) | 30.8 µM (inactive) | 36.4 µM (inactive) | 18.3 µM (inactive) | 37.2 µM (inactive) | 47.6 µM (inactive) | 16.1 µM (inactive) | 14.9 µM (inactive) | 42.2 µM (inactive) | > 53.2 µM (inactive) | 56.1 µM (inactive) | 31.2 µM (inactive) | 29.9 µM (inactive) | 33.8 µM (inactive) | 22.5 µM (inactive)
10 | CC1=CC(C)C(C)N(CC2=NCCN2)c2ccccc21 (stereo not drawn) | > 86.9 µM (inactive) | > 100 µM (inactive) | 17.9 µM (inactive) | > 47 µM (inactive) | > 100 µM (inactive) | > 100 µM (inactive) | 36.9 µM (inactive) | > 68.4 µM (inactive) | 38.1 µM (inactive) | 53.7 µM (inactive) | 21.4 µM (inactive) | 68.1 µM (inactive) | 60.8 µM (inactive) | > 100 µM (inactive) | 38.7 µM (inactive) | 18.7 µM (inactive) | 44.8 µM (inactive) | > 100 µM (inactive) | 19.5 µM (inactive) | 49.3 µM (inactive)
11 | N#CCN(Cc1ccccc1)[C@H]1CCC[C@]1(O)/C=C/c1ccc2c(c1)OCO2 | 36.1 µM (inactive) | 76.9 µM (inactive) | 18.4 µM (inactive) | 16.2 µM (inactive) | 26.3 µM (inactive) | 23.1 µM (inactive) | 24.5 µM (inactive) | 20 µM (inactive) | 15.7 µM (inactive) | 18.7 µM (inactive) | 17.6 µM (inactive) | 18.4 µM (inactive) | 18.3 µM (inactive) | 29 µM (inactive) | 19.8 µM (inactive) | 17.3 µM (inactive) | 20 µM (inactive) |  | 22.7 µM (inactive) | 16.1 µM (inactive)
12 | CON(C)C(C#N)=C(C#N)C#N | > 10 µM (inactive) | > 10 µM (inactive) | > 10 µM (inactive) | > 10 µM (inactive) | > 10 µM (inactive) | > 10 µM (inactive) | > 10 µM (inactive) | > 10 µM (inactive) | > 10 µM (inactive) | > 10 µM (inactive) | > 10 µM (inactive) | 2.86 µM (inactive) | > 10 µM (inactive) | > 10 µM (inactive) | > 10 µM (inactive) | > 10 µM (inactive) | > 10 µM (inactive) | > 10 µM (inactive) |  | > 10 µM (inactive)
13 | Cn1c2ccc([N+](=O)[O-])cc2c(=O)n1Cc1ccccc1F | 99.3 µM (inactive) | 41.5 µM (inactive) | 70.8 µM (inactive) | 64.4 µM (inactive) | 57 µM (inactive) | 35.1 µM (inactive) | 38.5 µM (inactive) | 35.3 µM (inactive) | 31.9 µM (inactive) | > 100 µM (inactive) | 46.8 µM (inactive) | 29.4 µM (inactive) | 40.1 µM (inactive) | 47.8 µM (inactive) | > 100 µM (inactive) | 47.5 µM (inactive) | 53.8 µM (inactive) | > 100 µM (inactive) | 42.4 µM (inactive) | 48.5 µM (inactive)
14 | COc1cc2c(ccc3c4cc(OC)c(OC)cc4c[n+](C)c23)cc1O [FAGARONINE] | 61.7 µM (inactive) | 39.6 µM (inactive) | 34.4 µM (inactive) | 48 µM (inactive) | 2.3 µM (inactive) | 23.2 µM (inactive) | 4.26 µM (inactive) | > 75 µM (inactive) | > 33 µM (inactive) | 4.15 µM (inactive) | 15.6 µM (inactive) | 1.47 µM (inactive) | 14.7 µM (inactive) | 12.2 µM (inactive) | > 65.3 µM (inactive) | 52.7 µM (inactive) | 41.4 µM (inactive) | 0.726 µM (active) | > 67 µM (inactive) | 1.23 µM (inactive)
